Data set [1] concerns cerebellar granule cells. Kind of data set: NO donor-induced apoptosis, morphological studies. As to conditions: 25 µmol/L; 24-hour exposure to GSNO or SNP (100-250 µmol/L). It is filed as cell-based, rat.
Data set [2] relates to cerebellar granule cells. The data set can be described thus: DNA fragmentation analysis after exposure to NO donors. It is filed as cell-based, rat. The conditions noted are these: pre-treatment of NO-treated cells.
For data set [3], the system named is cerebellar granule cells. Kind of data set: cell viability by trypan blue exclusion after exposure to NO donors. It is filed as cell-based, rat. As to conditions: exposure to NO donors (100 µmol/L SNP or GSNO), Figure 2.
Data set [4] concerns cerebellar granule cells. Kind of data set: MTT assay (mitochondrial activity) after exposure to GSNO. It is filed as cell-based, rat. As to conditions: Figure 3.
Data set [5] has as its system cerebellar granule cells. Kind of data set: lipid peroxidation (TBA assay) after exposure to NO donors. Type of data set: cell-based, rat. As to conditions: 24-hr treatment with GSNO or SNP, Figure 4.
In data set [6] the test system is cerebellar granule cells. Kind of data set: peroxynitrite-induced cell death (trypan blue exclusion and MTT assay), Pharmacological Test 1. Type of data set: cell-based, rat. As to conditions: 30-min exposure to 5-10 µmol/L peroxynitrite, assessed after 24-hr culture, Figure 5.
The subject of data set [7] is cerebellar granule cells. Kind of data set: peroxynitrite-induced apoptosis, morphological studies, Pharmacological Test 2. As to conditions: for protection from apoptotic death: 100 µM, 30-min exposure to 10 µM peroxynitrite. Type of data set: cell-based, rat.
Data set [8] has as its system cerebellar granule cells. The data set can be described thus: DNA fragmentation after exposure to peroxynitrite. Type of data set: cell-based, rat. As to conditions: peroxynitrite-treated cells.
The subject of data set [9] is cerebellar granule cells. Kind of data set: cell viability by MTT assay after exposure to peroxynitrite. The conditions noted are these: concentration not given, Figure 6. It is filed as cell-based, rat. For orientation: Formazan colour is commonly taken as a measure of viable cells.
Data set [10] relates to cerebellar granule cells. The data set can be described thus: lipid peroxidation (TBA assay) after exposure to peroxynitrite. It is filed as cell-based, rat.
The test system of data set [11] is cerebellar granule cells. Kind of data set: cell membrane fluidity by ESR spin labeling after exposure to peroxynitrite. Type of data set: cell-based, rat. The conditions noted are these: Figure 8.
Data set [12] relates to cerebellar granule cells. Kind of data set: cellular ATP content by HPLC after exposure to peroxynitrite. It is filed as cell-based, rat. As to conditions: pretreatment; exposure to peroxynitrite for 30 min, Figure 9.
For data set [13] the following is noted: unpublished data, contributed to Free Radic. Biol. Med.; cited from earlier work.
The next data set concerns neuronal membrane. The conditions noted are these: oxidative stress-induced alteration; unpublished data, contributed to Free Radic. Biol. Med.; cited from earlier work.
Another data set is described as follows: acute toxicity (LD50). The conditions noted are these: rat, in vivo.

The values below come from EP1053749A1, “PREVENTIVES AND REMEDIES FOR NEURON DIGENERATION-ASSOCIATED DISEASEAS” (priority 1998, dated 1999).

The structures appear in SMILES notation.

For orientation: LD50 means the dose at which mortality reaches 50%. Low readings indicate greater toxicity, high ones lower toxicity. Take `Cc1c(C)c2c(c(C)c1OP(=O)(O)OC1=C(O)[C@@H]([C@@H](O)CO)OC1=O)CCC(C)(CCCC(C)CCCC(C)CCCC(C)C)O2.O=P(O)(O)O` (mixture of isomers) [EPC-K1, L-ascorbic acid 2-[3,4-dihydro-2,5,7,8-tetramethyl-2-(4,8,12-trimethyltridecyl)-2H-1-benzopyran-6-yl-hydrogen phosphate] phosphate salt]: the “protection from apoptotic cell death” value in the data set with cerebellar granule cells [1] was “protected the cells from death”. The entries for the “DNA fragmentation (ladder pattern)” value in the data set with cerebellar granule cells [2] and in the data set with cerebellar granule cells [8] (50 µM) were “prevented DNA from fragmentation” and “effectively prevented DNA from fragmentation”, respectively. For the same compound, the “cell viability (trypan blue exclusion)” value in the data set with cerebellar granule cells [3] is “effectively protected the cells from death”. Further, in the data set on cerebellar granule cells [4] (8-hr exposure to 100 µmol/L GSNO), the “protection of ability of cells to reduce MTT (mitochondrial enzymes)” value was “exhibited no dear protective effects”. Further, the “further dysfunction of mitochondrial enzymes (MTT)” value in the data set on cerebellar granule cells [4] (after exposure to 100 µmol/L GSNO) was “prevented mitochondrial enzymes from falling into further dysfunction”. Besides, in the data set on cerebellar granule cells [5], the “lipid peroxidation (formation of TBARS)” value was “effectively inhibited lipid peroxidation”. The “peroxynitrite induced cell death” value in the data set on cerebellar granule cells [6] was “effectively prevented cell death”. In addition, in the data set with cerebellar granule cells [7], the “protection from apoptotic death” value is “protected from death”. Also, the “protective action against ONOO^--induced apoptosis (comparison)” value in the data set with cerebellar granule cells [7] (overall comparison in Pharmacological Test 2) is “more effective than vitamin C or Trolox”. The “cell viability (MTT assay)” value with cerebellar granule cells [9] was “effectively protected the cells from death”. In addition, in the data set with cerebellar granule cells [10] (50 µM, Figure 7), the “formation of TBARS (lipid peroxidation)” value is recorded as “markedly suppressed”. The “cell membrane fluidity (order parameter)” value in the data set on cerebellar granule cells [11] (50 µM) was “prevented the change in cell membrane fluidity”. Also, the “cellular ATP content” value in the data set on cerebellar granule cells [12] was “suppressed the decrease of ATP”. Further, the scavenging of peroxynitrite result in data set [13] was “effective scavenger of peroxynitrite”. In addition, the neuronal membrane fluidity entry in the data set with neuronal membrane was “protects neuronal membrane fluidity from oxidative stress-induced alteration”. Also, the solubility in water result in “solubility in water” is “soluble in water”. For the same compound, the results for the LD50 in “acute toxicity (LD50)” (iv) and in “acute toxicity (LD50)” (po) were over 100 mg/kg and over 5000 mg/kg, respectively.
As for `Cc1c(C)c2c(c(C)c1O)CCC(C)(C(=O)O)O2` (stereo not shown) [Trolox, 6-Hydroxy-2,5,7,8-tetramethylchroman-2-carboxylic acid], in the data set with cerebellar granule cells [7], the “protection from apoptotic death” value was “protected from death”. In addition, in the data set with cerebellar granule cells [8] (100 µM), the “DNA fragmentation (ladder pattern)” value is given as “exhibited protective effects”. Moreover, the “formation of TBARS (lipid peroxidation)” value in the data set with cerebellar granule cells [10] (100 µM) is “markedly inhibited the formation of TBARS”. For the same compound, the “cell membrane fluidity (order parameter)” value with cerebellar granule cells [11] (100 µM) is on record as “did not show significant protective effect”. For the same compound, in the data set on cerebellar granule cells [12], the “cellular ATP content” value was “suppressed the decrease of ATP”.
On to `O=C1O[C@H]([C@@H](O)CO)C(O)=C1O` [vitamin C], for which the “protection from apoptotic death” value in the data set with cerebellar granule cells [7] was “protected from death”. Besides, the “DNA fragmentation (ladder pattern)” value in the data set on cerebellar granule cells [8] (100 µM) is “exhibited protective effects”. Besides, the “formation of TBARS (lipid peroxidation)” value with cerebellar granule cells [10] (100 µM) is “markedly inhibited the formation of TBARS”. The “cellular ATP content” value in the data set on cerebellar granule cells [12] was “suppressed the decrease of ATP”.
